According to patent publication US9187450B2, “Substituted pyridine compound” (Daiichi Sankyo Company, Limited, priority 2010, dated 2015):
pIC50: −log10 of the molar value.

Target: recombinant human CETP protein (Homo sapiens (Human), UniProt P11597)
Experiment: Test of CETP inhibition activity (in vitro, buffer-based)
Assay type: biochemical
Settings: reconstituted HDL with [14C]-labeled cholesteryl ester, acceptor lipoprotein, 37° C.
Description: Test of CETP Inhibition Activity (In Vitro, Buffer-Based)
(1) Preparation of Reconstituted HDL
Cholesterol (1.125 μmol), phosphatidyl choline (4.5 μmol) and [^14C]-labeled cholesteryl ester (2.0 μCi; 40 μl) were taken in a glass test tube and well mixed with a vortex, and dried under a nitrogen gas current so that it formed a thin film. The obtained mixture was dissolved in ethanol (200 μl), which was designated as Solution A. A PBS solution [a mixed solution of Na2HPO4 (30 mM), KH2PO4 (8.8 mM), NaCl (60 mM) and EDTA (pH 7.4; 0.67 mM); 4 ml] was taken in a tube and the reaction solution was vigorously stirred with a vortex under a nitrogen current. The above-described Solution A was gently injected into this mixture with a syringe and the reaction solution was vigorously stirred with a vortex for 5 minutes under a nitrogen current. Sodium cholate ([…]; 0.38 ml) was added to the obtained mixture and the reaction solution was stirred for 2 minutes. ApoA-I protein (3 mg) was added to the obtained mixture and the reaction solution was stirred for 2 minutes. The obtained mixture was adjusted to 5 ml with the PBS solution and then dialyzed with the PBS solution. The obtained mixture was designated as the reconstituted HDL.
(2) Preparation of Acceptor Lipoprotein
NaBr was added to the plasma of a healthy person and the density of the mixture was adjusted to 1.019, and the mixture was subjected to density gradient centrifugation (40000 rpm, for 16 hours) to remove the fraction having a density of less than 1.019. NaBr was added to the obtained mixture and the density of the solution was adjusted to 1.063, and the solution was subjected to density gradient centrifugation (40000 rpm, 18 hours) to provide the fraction consisting of IDL (intermediate density lipoprotein) and LDL (1.019<density<1.063). The obtained fraction was dialyzed with the PBS solution. The obtained mixture was designated as the acceptor lipoprotein.
(3) Measurement of CETP Inhibition Activity
A recombinant human CETP protein (manufactured by Roar Biomedical Inc.; 4.5 ng), the acceptor lipoprotein described in (2) above (32.5 μg) and 5,5′-dithio-bis-(2-nitrobenzoic acid) (7 mM, 15 μl) were taken in a 96 well plate and the total amount of the mixture was adjusted to 48.5 μl with the PBS solution. The test compound [DMSO solution (concentration: 0.15, 0.5, 1.5, 5, 15, 50, 150 and 500 μM; 1.5 μl] was added to each well and the mixture was incubated in a thermostatic bath at 37° C. for 60 minutes. The reconstituted HDL (50 μl) described in (1) above was added to each well and the mixture was reacted in a thermostatic bath at 37° C. for 60 minutes. The 96 well plate was moved onto ice and a precipitation reagent [a mixed solution of magnesium chloride (60 mM) and 0.1% dextran sulfate [1/1 (v/v)]; 15 μl] was added to each well, and then the mixture was allowed to stand on ice for 15 minutes. The reaction solution (80 μl) in each well was moved to a filter plate and centrifuged at 1500 rpm for 1 minute, and the filtrate which passed through the filter was designated as the HDL fraction and the radioactivity thereof was measured with a scintillation counter. The percentage decrease in radioactivity in the case where the test compound was added in comparison with that in case where the test compound was not added was designated as the percentage CETP inhibition. The IC50 value was calculated from the percentage CETP inhibition.

Chain of recombinant human CETP protein (P11597 18-493): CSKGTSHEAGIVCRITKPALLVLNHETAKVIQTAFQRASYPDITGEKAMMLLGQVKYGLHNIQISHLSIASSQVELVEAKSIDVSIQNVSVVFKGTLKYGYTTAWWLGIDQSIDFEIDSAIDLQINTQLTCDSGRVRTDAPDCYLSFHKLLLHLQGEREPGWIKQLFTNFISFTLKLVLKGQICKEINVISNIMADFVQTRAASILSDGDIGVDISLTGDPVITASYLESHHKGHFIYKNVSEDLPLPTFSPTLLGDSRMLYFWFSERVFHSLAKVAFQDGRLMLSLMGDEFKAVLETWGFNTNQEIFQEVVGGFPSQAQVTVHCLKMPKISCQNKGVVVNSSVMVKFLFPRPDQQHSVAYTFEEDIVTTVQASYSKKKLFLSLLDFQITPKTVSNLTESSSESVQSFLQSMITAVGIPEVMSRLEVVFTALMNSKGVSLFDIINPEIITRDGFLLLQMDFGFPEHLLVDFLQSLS

Row | pIC50 | SMILES
1 | 7.34 | CC1(C)Cc2nc(C3CCN(c4ncc(N5CCC(O)CC5)cn4)CC3)c([C@@H](F)c3ccc(C(F)(F)F)cc3)c(C3CCC(F)(F)CC3)c2[C@@H](O)C1 (single isomer, unassigned) [Example 11, (−)-4-(4,4-Difluorocyclohexyl)-3-{fluoro[4-(trifluoromethyl)phenyl]methyl}-2-{1-[5-(4-hydroxypiperidin-1-yl)pyrimidin-2-yl]piperidin-4-yl}-7,7-dimethyl-5,6,7,8-tetrahydroquinolin-5-ol]
2 | 8.22 | CC(C)S(=O)(=O)N(C)Cc1cnc(N2CCC(c3nc4c(c(C5CCC(F)(F)CC5)c3[C@@H](F)c3ccc(C(F)(F)F)cc3)[C@@H](O)CC(C)(C)C4)CC2)nc1 (single isomer, unassigned) [Example 52, 4-(4,4-Difluorocyclohexyl)-3-{fluoro[4-(trifluoromethyl)phenyl]methyl}-7,7-dimethyl-2-[1-(5-{[methyl(propan-2-ylsulfonyl)amino]methyl}pyrimidin-2-yl)piperidin-4-yl]-5,6,7,8-tetrahydroquinolin-5-ol]
3 | 7.80 | CN1CC[C@@H](Oc2cnc(N3CCC(c4nc5c(c(C6CCC(F)(F)CC6)c4C(F)c4ccc(C(F)(F)F)cc4)C(O)CC(C)(C)C5)CC3)nc2)C1 (single isomer, unassigned) [Example 41]
4 | 7.27 | CC(C)Cc1cnc(N2CCC(c3nc4c(c(C5CCC(F)(F)CC5)c3[C@@H](F)c3ccc(C(F)(F)F)cc3)[C@@H](O)CC(C)(C)C4)CC2)nc1 (single isomer, unassigned) [Example 24, (−)-4-(4,4-Difluorocyclohexyl)-3-{fluoro[4-(trifluoromethyl)phenyl]methyl}-7,7-dimethyl-2-{1-[5-(2-methylpropyl)pyrimidin-2-yl]piperidin-4-yl}-5,6,7,8-tetrahydroquinolin-5-ol]
5 | 7.72 | CN1CCN(c2cnc(N3CCC(c4nc5c(c(C6CCC(F)(F)CC6)c4[C@@H](F)c4ccc(C(F)(F)F)cc4)[C@@H](O)CC(C)(C)C5)CC3)nc2)CC1 (single isomer, unassigned) [Example 8, (−)-4-(4,4-Difluorocyclohexyl)-3-{fluoro[4-(trifluoromethyl)phenyl]methyl}-7,7-dimethyl-2-{1-[5-(4-methylpiperazin-1-yl)pyrimidin-2-yl]piperidin-4-yl}-5,6,7,8-tetrahydroquinolin-5-ol]
6 | 7.29 | COc1cnc(N2CCC(c3nc4c(c(C5CCC(F)(F)CC5)c3[C@@H](F)c3ccc(C(F)(F)F)cc3)[C@@H](O)CC(C)(C)C4)CC2)nc1 (single isomer, unassigned) [Example 3, (−)-4-(4,4-Difluorocyclohexyl)-3-{fluoro[4-(trifluoromethyl)phenyl]methyl}-2-[1-(5-methoxypyrimidin-2-yl)piperidin-4-yl]-7,7-dimethyl-5,6,7,8-tetrahydroquinolin-5-ol]
7 | 6.70 | CC1(C)Cc2nc(C3CCN(c4ncc(C5CC5)cn4)CC3)c([C@@H](F)c3ccc(C(F)(F)F)cc3)c(C3CCC(F)(F)CC3)c2[C@@H](O)C1 (single isomer, unassigned) [Example 19, (−)-2-[1-(5-Cyclopropylpyrimidin-2-yl)piperidin-4-yl]-4-(4,4-difluorocyclohexyl)-3-{fluoro[4-(trifluoromethyl)phenyl]methyl}-7,7-dimethyl-5,6,7,8-tetrahydroquinolin-5-ol]
8 | 7.66 | C[C@@H](O)COc1cnc(N2CCC(c3nc4c(c(C5CCC(F)(F)CC5)c3[C@@H](F)c3ccc(C(F)(F)F)cc3)[C@@H](O)CC(C)(C)C4)CC2)nc1 (single isomer, unassigned) [Example 42]
9 | 8.00 | CN1CCC(Oc2cnc(N3CCC(c4nc5c(c(C6CCC(F)(F)CC6)c4[C@@H](F)c4ccc(C(F)(F)F)cc4)[C@@H](O)CC(C)(C)C5)CC3)nc2)CC1 (single isomer, unassigned) [Example 38, 4-(4,4-Difluorocyclohexyl)-3-{fluoro[4-(trifluoromethyl)phenyl]methyl}-7,7-dimethyl-2-(1-{5-[(1-methylpiperidin-4-yl)oxy]pyrimidin-2-yl}piperidin-4-yl)-5,6,7,8-tetrahydroquinolin-5-ol]
